Assay results: patent US20130017616A1, “Methods For Treating Inflammation” (Vanderbilt University - Center for Technology Transfer and …, priority 2011, published 2013)

Legend:
[1] = system: EHS collagen IV; assay: Chlorination of type IV collagen by HOCl, N-chloramine assay; assay type: biochemical, murine; settings: HOCl with equimolar PM, 1 h
Experimental: N-Chloramine Assay/ TMB Assay—The presence of N-chloramines were determined by the method of Witko et al. [3] and Dypbukt et al. [4]. The former method is based on the colorimetric measurement of triiodide ions formed by the oxidation of potassium iodide (KI) in solution. Chloroamine-T, a commercially available source of N-chloramine, was used to calibrate the assay. 100 mM chloramine-T solution was made fresh in distilled H2O. The 100 mM chloramines-T was diluted to final concentrations ranging from 20 to 100 μM immediately before use. The direct oxidation of Kl by NaOCl was also determined and these values were subtracted as background from the corresponding treated samples. The resulting difference represented the amount of N-chloramine present in each sample. In the latter method the developing reagent was composed of 2 mM TMB in 400 mM acetate buffer, pH 5.4, containing 10% dimethlyforamide and 100 μM sodium iodide. This solution was prepared by dissolving TMB in 100% DMF, diluting with acetate buffer to get the desired final concentration of TMB, and then adding sodium iodide. When the developing reagent was mixed with the solutions of chloramines, the final concentration of TMB was always at least 10 times that of the concentration of chloramines. This prevented further oxidation of the blue product. […]

[2] = biological target: T1, RNase (Bos taurus, UniProt P61823); assay: Measurements of RNase activity after incubation with HOCl, HOBr or PM; assay type: biochemical; settings: for effect on RNase activity: RNase 15 μg/mL incubated with different concentrations of the substance at 37° C. for 2 h
T1 construct: purchased Worthington Biochemical Corporation
T1 sequence (P61823 27-150): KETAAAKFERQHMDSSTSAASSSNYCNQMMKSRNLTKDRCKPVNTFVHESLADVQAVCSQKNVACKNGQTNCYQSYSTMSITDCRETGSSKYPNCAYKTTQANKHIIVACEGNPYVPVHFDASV
Experimental: FIG. 1. […] RNase (15 μg/mL) was incubated alone or with different concentrations of HOCl, HOBr or PM at 37° C. for 2 h. Enzymatic activity was determined as described under Experimental Procedures.
Measurements of RNase Activity—RNase activity was determined by measuring the formation of acid-soluble oligonucleotide as described by Kalnitsky et al, with some modifications previously described by Voziyan et al. For the assay, 100 μL of 3 μg/mL RNase in 100 mM sodium acetate, pH 5.0, was mixed with 100 μL of 1% yeast RNA in the same buffer. After the incubation at 37° C. for 5 min, the reaction was stopped by the addition of 100 μL of an ice-cold solution of 0.8% lanthanum nitrate in 18% perchloric acid. The incubations were kept on ice for 5 min to ensure complete precipitation of undigested RNA and then centrifuged at 12000 g for 10 min. An aliquot of the supernatant (20 μL) was diluted to 1 mL with distilled water, the amount of digested (solubilized) RNA was determined by measuring the absorbance at 260 nm. The activity of RNase incubated either alone or with PM or an amino acid substitute at 37° C. was monitored separately and used as a reference for each incubation time.

[3] = system: RNase; assay: LC-MS/MS analysis of RNase modifications (halogenation of Tyr-92 and Tyr-97); assay type: biochemical; settings: RNase with HOCl or HOBr, with or without PM
Experimental: FIG. 3A. Modification of functionally important chlorinated Tyr species (Y-92 and Y-97) in RNase by HOCl and protection by PM. *P<0.05, control vs. HOCl (n=3); **P<0.05, HOCl vs. HOCl+PM (n=3).
FIG. 3B. Modification of functionally important chlorinated Tyr species (Y-92 and Y-97) in RNase by HOBr and protection by PM. *P<0.05, control vs. HOBr; **P<0.05, HOBr vs. HOBr+PM.
LC-MS/MS analysis of RNase modifications—The site-specific modifications in RNase were analyzed by tandem mass spectrometry. The samples were prepared using the spin filter protocol for proteomic analysis. RNase samples were digested either with trypsin. The data-dependent scanning was performed using a LTQ Orbitrap^TM (Thermo Fischer Scientific, San Jose, Calif.) mass spectrometer equipped with an Eksigent AS1 autosampler and an Eksigent 1D+HPLC pump attached directly to the instrument's nanospray source. The peptides were separated on a capillary tip, 100 μm×18 cm, packed with C18 resin (Jupiter C18, 3 μm, 300 Å, Phenomenex, Torrance, Calif.) using an inline vented trapping column that was 100 μm×6 cm. […]
The data generated from the data-dependent LC-MS/MS experiments were analyzed using Sequest. […] The peak containing the peptide of interest was extracted from the chromatogram and the area of the peak was determined using Xcalibur™ software. […]

[4] = system: integrin α1β1 binding to collagen IV; assay: Modification of collagen IV and integrin binding assay (solid phase); parameters: species or system Human; settings: 0.1 mM HOCl or HOBr with 0.1 mM PM, 1 h; integrin 1 μg/mL, 2 h at 30° C.
Experimental: FIG. 6B. EHS Collagen IV was coated onto 96-well plate overnight at 4° C. Collagen IV was incubated with 0.1 mM HOCl or HOBr either with or without 0.1 mM PM for 1 h at 37° C. Collagen IV was then incubated with 1 μg/mL of integrin α1β1 for 2 h at 30° C. Integrin binding was detected in solid phase binding assay using integrin α1β1 antibody. The bars represent background-subtracted […] binding±SD (n=4). *P<0.05, control vs. HOCl or HOBr; **P<0.05, HOCl or HOBr vs. HOCl+PM or HOBr+PM.
Modification of Collagen IV and Integrin Binding Assay—20 μg/mL of type IV collagen in 20 mM sodium phosphate buffer, 7.5, was immobilized on 96 well plates at 4° C. overnight. Nonspecific binding sites were blocked with 1% BSA in TBS for 2 hr at 30° C. as previously described. Wells were washed five times with either TBS or 100 mM sodium phosphate, pH 7.5, before being incubated in the same buffer with or without HOCl/HOBr alone or HOCl/l HOBr plus PM. […] After extensive washing, the bound antibodies were detected using alkaline phosphatase-conjugated anti-mouse IgG antibodies. p-Nitrophenyl phosphate substrate (Sigma) was added to the wells, and absorbance was read at 410 nm. Readings from the samples containing EDTA were subtracted from all the data to obtain the baseline corrected magnesium dependent binding.

Row | effect on RNase activity [2] | protection of RNase enzymatic activity against hypohalous acids ([2]; RNase with HOCl or HOBr plus PM) | halogenation of Tyr-92 and Tyr-97 residues in RNase [3] | binding of integrin α1β1 to collagen IV in the presence of HOCl or HOBr [4] | Compound | chlorination of collagen IV by hypochlorous acid (protein chloramine content) [1]
1 | no effect on activity | protected enzymatic activity | inhibited halogenation | protected binding | Cc1ncc(CO)c(CN)c1O [PM, Pyridoxamine] | significantly inhibited chlorination
2 | inhibit RNase activity |  |  |  | OCl [HOCl, hypochlorous acid] | 

Row | Compound | effect on RNase activity [2] | protection of RNase enzymatic activity against hypohalous acids ([2]; RNase with HOCl or HOBr plus PM) | halogenation of Tyr-92 and Tyr-97 residues in RNase [3] | binding of integrin α1β1 to collagen IV in the presence of HOCl or HOBr [4] | chlorination of collagen IV by hypochlorous acid (protein chloramine content) [1]
3 | OBr [HOBr, hypobromous acid] | inhibit RNase activity |  |  |  | 
